{"source": "patent US11891369B2", "about": "“Compounds for binding proprotein convertase subtilisin/kexin type 9” (SRX Cardio, LLC, priority 2016, dated 2024)", "key": {"PCSK9 [1]": {"molecular_target": "T1, PCSK9 (Homo sapiens, UniProt Q8NBP7)", "T1 construct": "host or cells: added to HepG2, HuH7, FL83B or shPCSK9 knockdown lines", "T1 sequence (Q8NBP7 153-692)": "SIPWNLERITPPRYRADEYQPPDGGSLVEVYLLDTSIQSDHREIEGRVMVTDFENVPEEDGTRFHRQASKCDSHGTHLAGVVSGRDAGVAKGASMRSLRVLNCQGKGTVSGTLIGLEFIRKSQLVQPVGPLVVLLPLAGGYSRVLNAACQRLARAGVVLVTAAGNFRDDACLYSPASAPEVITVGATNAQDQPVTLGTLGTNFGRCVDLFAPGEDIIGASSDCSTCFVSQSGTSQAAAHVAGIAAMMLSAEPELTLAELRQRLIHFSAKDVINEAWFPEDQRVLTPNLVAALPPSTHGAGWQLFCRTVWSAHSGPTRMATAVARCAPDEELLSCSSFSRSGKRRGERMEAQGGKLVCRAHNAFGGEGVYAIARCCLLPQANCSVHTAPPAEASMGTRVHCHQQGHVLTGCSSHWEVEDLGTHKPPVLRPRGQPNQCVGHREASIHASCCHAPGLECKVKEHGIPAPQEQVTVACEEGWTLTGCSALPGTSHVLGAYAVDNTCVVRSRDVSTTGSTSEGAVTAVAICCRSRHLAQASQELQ", "assay": "LDLR flow cytometric analysis (LDL-R assay)", "type": "cell-based", "conditions": "percentage recovery in the LDL-R assay at 20 uM concentration", "source_text": "Cells, such as HepG2, HuH7, FL83B, or a cell line transfected with a short-hairpin PCSK9 knockdown sequence (e.g., HepG2/shPCSK9, HuH7/shPCSK9) can be cultured following routine procedures, such as those described by Benjannet et al., “Effects of the prosegment and pH on the activity of PCSK9: evidence for additional processing events” J Biol Chem. 285(52): 40965-40978 (2010), which is hereby incorporated by reference in its entirety.\nLDLR levels can be measured using flow cytometry or fluorescence activated cell sorting (FACS) using protocols adapted from Benjannet et al., “Effects of the prosegment and pH on the activity of PCSK9: evidence for additional processing events” J Biol Chem. 285(52): 40965-40978 (2010) and “Composition and Methods of Use of Small Molecules as Binding Ligands for the Modulation of Proprotein Convertase Subtilisin/Kexin Type 9 (PCSK9) Protein Activity” (WO2016029037), which are incorporated by reference in their entirety.\nCells, such as HepG2, HuH7, FL83B, or a cell line transfected with a short-hairpin PCSK9 knockdown sequence such as HepG2/shPCSK9, HuH7/shPCSK9, or FL83B/shPCSK9 are cultured in media composed of complete, high glucose DMEM (Invitrogen) with 10% fetal bovine serum (Life Technologies), supplemented with penicillin-streptomycin (Life Technologies). Cells are plated in a 24-well plate, at 125 k cells/well, and cultured at 37° C. for 12-24 h. Culture media is removed and replaced with fresh culture media or culture media plus a predetermined amount of recombinant PCSK9 (final 5 ug/ml). Wells evaluating test compounds are dosed with concentrations ranging from 0 nM to 100 uM.\nFollowing an incubation period of 4-6 hours at 37° C., the media is removed and the cells are rinsed by adding 0.5 ml of complete D-PBS (i.e., Dulbecco's phosphate buffered saline (D-PBS, Life Technologies) supplemented with 0.5% bovine serum albumin (BSA, Sigma) and 1 g/L glucose (Sigma)). The wash media is carefully aspirated, and cells are released from the plate using 200 uls of TrypLE Express (Life Technologies) by incubating for 5-10 minutes at 37° C. The TyrpLE-Cell suspension is inactivated by adding 100 uls of Fetal Bovine Serum, transferred to a v-bottom plate, and centrifuged at 250× gravity for 5 minutes. Following centrifugation, the supernatant is aspirated and the cell pellet is resuspended in 100 uL of complete D-PBS, and centrifuged at 250× gravity for 5 minutes. Following centrifugation, the supernatant is aspirated and the cell pellet is resuspended in 100 uls of antibody staining solution (600 uls of anti-LDLr-PE in complete D-PBS) and incubated on ice, protected from light, for 30 minutes. The cells are then pelleted by centrifugation, resuspended in 100 uL of 4′,6-Diamidino-2-phenylindole (DAPI, Cayman Chemical) or 7-aminoactinomycin D (7AAD, Life Technologies) staining solution to measure cell viability\nCells are analyzed for both cell viability marker (dead cells) and LDLR in live cells using a flow cytometer per the manufacturer's operating manual. Cells incubated with small molecule compounds that are inhibitors of PCSK9 will be expected to show increased amounts of LDLR, relative to control (no compound) specimens, and cells incubated with small molecule compounds that are activators of PCSK9 will be expected to show decreased amounts of LDLR relative to control (no compound) specimens."}, "PCSK9 [2]": {"molecular_target": "T1, PCSK9", "assay": "Cellular DiI-LDL uptake analysis (LDL-uptake assay)", "type": "cell-based", "conditions": "for remaining activity at 20 µM: percentage uptake of DiI-LDL over the control at 20 uM concentration; for DiI-LDL uptake (% of control) at 20 µM: read-out: LDL-uptake % of control", "protocol": "Cells, such as HepG2, HuH7, FL83B, or a cell line transfected with a short-hairpin PCSK9 knockdown sequence such as HepG2/shPCSK9, HuH7/shPCSK9, or FL83B/shPCSK9 are plated and cultured at 37° C. for 12-24 h. Culture media is removed and replaced with fresh lipoprotein-depleted culture media supplemented with 5 ug/mL of DiI-LDL (Kalen Biomedical) or lipoprotein-depleted culture media supplemented with 5 ug/mL of DiI-LDL plus a predetermined concentration of recombinant PCSK9, for example a 10 nM final concentration of PCSK9. Lipoprotein-depleted culture media can be composed of DMEM (Invitrogen) with 10% lipoprotein-depleted fetal bovine serum (Kalen Biomedical) and supplemented with penicillin-streptomycin (Life Technologies). Cells are dosed with small molecule test compounds at doses ranging from 0 nM to 100 uM.\nThe lipoprotein-depleted media is removed and cells rinsed three times with phosphate buffered saline. A final volume of phosphate buffered saline is added back to the wells. The DiI fluorescence is measured with a plate reader using an exciting wavelength of 550 nm and the resulting emission at 590 nm is measured. The Hoechst stain fluorescence is measured with a plate reader using an exciting wavelength of 355 nm and the resulting emission at 460 nm is measured.\nCells are analyzed by for both Hoechst stain (DNA content) and DiI-LDL fluorescence."}}, "data": [{"smiles": "O=S(=O)(c1ccc(C2CCNCC2)c2ccccc12)C1CCNCC1", "note": "[compound 23, 4-((4-(Piperidin-4-yl)naphthalen-1-yl)sulfonyl)piperidine]", "values": [{"measurement": "LDL-R % Recovered", "setting": "PCSK9 [1]", "value": "+ (0-10% recovery)"}, {"measurement": "remaining activity at 20 µM", "setting": "PCSK9 [2]", "value": "> 150", "unit": "%"}]}, {"smiles": "O=S(=O)(c1ccc(N2CCNCC2)c2ccccc12)C1CCNCC1", "note": "[compound 7, 1-(4-(Piperidin-4-ylsulfonyl)naphthalen-1-yl)piperazine]", "values": [{"measurement": "LDL-R % Recovered", "setting": "PCSK9 [1]", "value": "+ (0-10% recovery)"}, {"measurement": "remaining activity at 20 µM", "setting": "PCSK9 [2]", "value": "> 150", "unit": "%"}]}, {"smiles": "O=S(=O)(Nc1ccccc1)c1ccc(N2CCNCC2)c2ccccc12", "note": "[compound 73, N-phenyl-4-(piperazin-1-yl)naphthalene-1-sulfonamide]", "values": [{"measurement": "LDL-R % Recovered", "setting": "PCSK9 [1]", "value": "+ (0-10% recovery)"}, {"measurement": "remaining activity at 20 µM", "setting": "PCSK9 [2]", "value": "100 to 150", "unit": "%"}]}, {"smiles": "FC(F)(F)c1ccc(N2CCNCC2)c2ccccc12", "note": "[compound 1, 1-(4-(Trifluoromethyl)naphthalen-1-yl)piperazine]", "values": [{"measurement": "LDL-R % Recovered", "setting": "PCSK9 [1]", "value": "+++ (>30% recovery)"}, {"measurement": "DiI-LDL uptake (% of control) at 20 µM", "setting": "PCSK9 [2]", "value": "> 150", "unit": "%"}]}, {"smiles": "NC(=O)N1CCN(c2cccc3ccccc23)CC1", "note": "[compound 11, 4-(Naphthalen-1-yl)piperazine-1-carboxamide]", "values": [{"measurement": "LDL-R % Recovered", "setting": "PCSK9 [1]", "value": "+ (0-10% recovery)"}, {"measurement": "DiI-LDL uptake (% of control) at 20 µM", "setting": "PCSK9 [2]", "value": "< 100", "unit": "%"}]}, {"smiles": "c1ccc2c(N3CCNCC3)cccc2c1", "note": "[compound 107, 1-(naphthalen-1-yl)piperazine]", "values": [{"measurement": "LDL-R % Recovered", "setting": "PCSK9 [1]", "value": "++ (10-30% recovery)"}, {"measurement": "DiI-LDL uptake (% of control) at 20 µM", "setting": "PCSK9 [2]", "value": "> 150", "unit": "%"}]}, {"smiles": "Cc1ccc(C2CCNCC2)c2ccccc12", "note": "[compound 43, 4-(4-Methylnaphthalen-1-yl)piperidine]", "values": [{"measurement": "LDL-R % Recovered", "setting": "PCSK9 [1]", "value": "++ (10-30% recovery)"}, {"measurement": "remaining activity at 20 µM", "setting": "PCSK9 [2]", "value": "> 150", "unit": "%"}]}, {"smiles": "c1ccc2c(N3CCNCC3)ccc(OC3CCNCC3)c2c1", "note": "[compound 4, 1-(4-(Piperidin-4-yloxy)naphthalen-1-yl)piperazine]", "values": [{"measurement": "LDL-R % Recovered", "setting": "PCSK9 [1]", "value": "+ (0-10% recovery)"}, {"measurement": "remaining activity at 20 µM", "setting": "PCSK9 [2]", "value": "> 150", "unit": "%"}]}, {"smiles": "c1ccc2c(N3CCNCC3)ccc(NC3CCNCC3)c2c1", "note": "[compound 5, N-(4-(Piperazin-1-yl)naphthalen-1-yl)piperidin-4-amine]", "values": [{"measurement": "LDL-R % Recovered", "setting": "PCSK9 [1]", "value": "++ (10-30% recovery)"}, {"measurement": "remaining activity at 20 µM", "setting": "PCSK9 [2]", "value": "< 100", "unit": "%"}]}, {"smiles": "O=C(c1ccc(N2CCNCC2)c2ccccc12)N1CCNCC1", "note": "[compound 8, Piperazin-1-yl(4-(piperazin-1-yl)naphthalen-1-yl)methanone]", "values": [{"measurement": "LDL-R % Recovered", "setting": "PCSK9 [1]", "value": "+ (0-10% recovery)"}, {"measurement": "remaining activity at 20 µM", "setting": "PCSK9 [2]", "value": "> 150", "unit": "%"}]}]}
